# Like-named read-outs stand apart in the source and are kept apart here.
# How the values were obtained:
# Assay in all cases: Test B pre-/postemergence plant response
# Assay type in all cases: in vivo
# [1] = test system: wheat (Triticum aestivum); details: Triticum aestivum, read-out: Plant response rating, Wheat; for plant injury at 62 g/ha: 62 g ai/ha; for plant injury at 62 g/ha / plant injury at 125 g/ha / plant injury at 250 g/ha: scale 0 to 100; for plant injury at 125 g/ha: 125 g ai/ha; for plant injury at 250 g/ha: 250 g ai/ha
# Source text: (§1) Seeds of plant species selected from blackgrass (Alopecurus myosuroides), downy bromegrass (Bromus tectorum), green foxtail (Setaria viridis), Italian ryegrass (Lolium multiflorum), wheat (Triticum aestivum), wild oat (Avena fatua), catchweed bedstraw (Galium aparine), bermudagrass (Cynodon dactylon), surinam grass (Brachiaria decumbens), cocklebur (Xanthium strumarium), corn (Zea mays), large crabgrass (Digitaria sanguinalis), woolly cupgrass (Eriochloa villosa), giant foxtail (Setaria faberii), goosegrass (Eleusine indica), johnsongrass (Sorghum halepense), kochia (Kochia scoparia), lambsquarters (Chenopodium album), morningglory (Ipomoea coccinea), eastern black (E.B.) nightshade (Solanum ptycanthum), yellow nutsedge (Cyperus esculentus), pigweed (Amaranthus retroflexus), common ragweed (Ambrosia elation), Russian thistle (Salsola iberica), soybean (Glycine max), common (oilseed) sunflower (Helianthus annuus), and velvetleaf (Abutilon theophrasti) were planted and treated preemergence with test chemicals formulated in a non-phytotoxic solvent mixture which included a surfactant.
# (§2) At the same time, plants selected from these crop and weed species and also winter barley (Hordeum vulgare), canarygrass (Phalaris minor), chickweed (Stellaria media) and windgrass (Apera spica-venti) were treated with postemergence applications of some of the test chemicals formulated in the same manner. Plants ranged in height from 2 to 18 cm (1- to 4-leaf stage) for postemergence treatments.
# (§3) Plant species in the flooded paddy test consisted of rice (Oryza sativa), umbrella sedge (Cyperus difformis), ducksalad (Heteranthera limosa) and barnyardgrass (Echinochloa crus-galli) grown to the 2-leaf stage for testing. At time of treatment, test pots were flooded to 3 cm above the soil surface, treated by application of test compounds directly to the paddy water, and then maintained at that water depth for the duration of the test. Treated plants and controls were maintained in a greenhouse for 13 to 15 days, after which time all species were compared to controls and visually evaluated. Plant response ratings, summarized in Table B, are based on a scale of 0 to 100 where 0 is no effect and 100 is complete control. A dash (-) response means no test result.
# [2] = test system: velvetleaf (Abutilon theophrasti); details: Abutilon theophrasti, read-out: Plant response rating, Velvetleaf; for pest or weed control at 31 g/ha: 31 g ai/ha, 100 complete control; for pest or weed control at 62 g/ha: 62 g ai/ha; for pest or weed control at 62 g/ha / pest or weed control at 125 g/ha / pest or weed control at 250 g/ha: scale 0 to 100; for pest or weed control at 125 g/ha: 125 g ai/ha; for pest or weed control at 250 g/ha: 250 g ai/ha
# Source text: as §1, §2, §3
# [3] = test system: large crabgrass (Digitaria sanguinalis); details: Digitaria sanguinalis, read-out: Plant response rating, Crabgrass, Large; for pest or weed control at 31 g/ha: 31 g ai/ha, 100 complete control; for pest or weed control at 62 g/ha: 62 g ai/ha; for pest or weed control at 62 g/ha / pest or weed control at 125 g/ha / pest or weed control at 250 g/ha: scale 0 to 100; for pest or weed control at 125 g/ha: 125 g ai/ha; for pest or weed control at 250 g/ha: 250 g ai/ha
# Source text: as §1, §2, §3
# [4] = test system: green foxtail (Setaria viridis); details: Setaria viridis, read-out: Plant response rating, Foxtail, Green; for pest or weed control at 31 g/ha: 31 g ai/ha, 100 complete control; for pest or weed control at 62 g/ha: 62 g ai/ha; for pest or weed control at 62 g/ha / pest or weed control at 125 g/ha / pest or weed control at 250 g/ha: scale 0 to 100; for pest or weed control at 125 g/ha: 125 g ai/ha; for pest or weed control at 250 g/ha: 250 g ai/ha
# Source text: as §1, §2, §3
# [5] = test system: surinam grass (Brachiaria decumbens); details: Urochloa decumbens, read-out: Plant response rating, Surinam Grass; for pest or weed control at 31 g/ha: 31 g ai/ha, 100 complete control; for pest or weed control at 62 g/ha: 62 g ai/ha; for pest or weed control at 62 g/ha / pest or weed control at 125 g/ha / pest or weed control at 250 g/ha: scale 0 to 100; for pest or weed control at 125 g/ha: 125 g ai/ha; for pest or weed control at 250 g/ha: 250 g ai/ha
# Source text: as §1, §2, §3
# [6] = test system: morningglory (Ipomoea coccinea); details: Ipomoea, read-out: Plant response rating, Morningglory; for pest or weed control at 62 g/ha: 62 g ai/ha; for pest or weed control at 62 g/ha / pest or weed control at 125 g/ha / pest or weed control at 250 g/ha: scale 0 to 100; for pest or weed control at 125 g/ha: 125 g ai/ha; for pest or weed control at 250 g/ha: 250 g ai/ha
# Source text: as §1, §2, §3
# [7] = pre-emergence, Preemergence, 31 g ai/ha, 0 to 100 scale, 0 no effect, 100 complete control
# [8] = post-emergence, Postemergence, scale 0 to 100, 0 no effect
# [9] = pre-emergence, Preemergence, 0 to 100 scale, 0 no effect
structure (smiles),measurement,setting,value
"Cc1cc(-c2ccc(C(F)(F)F)cc2)nn1-c1c(O)cnn(C)c1=O [Compound 1, 5-hydroxy-2-methyl-4-[5-methyl-3-[4-(trifluoromethyl)phenyl]-1H-pyrazol-1-yl]-3(2H)-pyridazinone]",plant injury at 62 g/ha,"[1]; post-emergence, Postemergence",90%
same,plant injury at 125 g/ha,"[1]; post-emergence, Postemergence",90%
same,plant injury at 250 g/ha,"[1]; post-emergence, Postemergence",95%
same,plant injury at 31 g/ha,[1]; [7],35%
same,plant injury at 62 g/ha,"[1]; pre-emergence, Preemergence",45%
same,plant injury at 125 g/ha,"[1]; pre-emergence, Preemergence",90%
same,plant injury at 250 g/ha,"[1]; pre-emergence, Preemergence",95%
same,pest or weed control at 31 g/ha,[2]; [8],0%
same,pest or weed control at 62 g/ha,"[2]; post-emergence, Postemergence",0%
same,pest or weed control at 125 g/ha,"[2]; post-emergence, Postemergence",0%
same,pest or weed control at 250 g/ha,"[2]; post-emergence, Postemergence",50%
same,pest or weed control at 31 g/ha,[2]; [9],0%
same,pest or weed control at 62 g/ha,"[2]; pre-emergence, Preemergence",0%
same,pest or weed control at 125 g/ha,"[2]; pre-emergence, Preemergence",0%
same,pest or weed control at 250 g/ha,"[2]; pre-emergence, Preemergence",50%
same,pest or weed control at 31 g/ha,[3]; [8],80%
same,pest or weed control at 62 g/ha,"[3]; post-emergence, Postemergence",90%
same,pest or weed control at 125 g/ha,"[3]; post-emergence, Postemergence",100%
same,pest or weed control at 250 g/ha,"[3]; post-emergence, Postemergence",100%
same,pest or weed control at 31 g/ha,[3]; [9],98%
same,pest or weed control at 62 g/ha,"[3]; pre-emergence, Preemergence",100%
same,pest or weed control at 125 g/ha,"[3]; pre-emergence, Preemergence",100%
same,pest or weed control at 250 g/ha,"[3]; pre-emergence, Preemergence",100%
same,pest or weed control at 31 g/ha,[4]; [8],95%
same,pest or weed control at 62 g/ha,"[4]; post-emergence, Postemergence",100%
same,pest or weed control at 125 g/ha,"[4]; post-emergence, Postemergence",100%
same,pest or weed control at 250 g/ha,"[4]; post-emergence, Postemergence",100%
same,pest or weed control at 31 g/ha,[4]; [9],100%
same,pest or weed control at 62 g/ha,"[4]; pre-emergence, Preemergence",100%
same,pest or weed control at 125 g/ha,"[4]; pre-emergence, Preemergence",100%
same,pest or weed control at 250 g/ha,"[4]; pre-emergence, Preemergence",100%
same,pest or weed control at 31 g/ha,[5]; [8],100%
same,pest or weed control at 62 g/ha,"[5]; post-emergence, Postemergence",100%
same,pest or weed control at 125 g/ha,"[5]; post-emergence, Postemergence",100%
same,pest or weed control at 250 g/ha,"[5]; post-emergence, Postemergence",100%
same,pest or weed control at 31 g/ha,[5]; [9],100%
same,pest or weed control at 62 g/ha,"[5]; pre-emergence, Preemergence",100%
same,pest or weed control at 125 g/ha,"[5]; pre-emergence, Preemergence",100%
same,pest or weed control at 250 g/ha,"[5]; pre-emergence, Preemergence",100%
same,pest or weed control at 62 g/ha,"[6]; post-emergence, Postemergence",0%
same,pest or weed control at 125 g/ha,"[6]; post-emergence, Postemergence",0%
same,pest or weed control at 250 g/ha,"[6]; post-emergence, Postemergence",0%
same,pest or weed control at 31 g/ha,[6]; [7],0%
same,pest or weed control at 62 g/ha,"[6]; pre-emergence, Preemergence",0%
same,pest or weed control at 125 g/ha,"[6]; pre-emergence, Preemergence",0%
same,pest or weed control at 250 g/ha,"[6]; pre-emergence, Preemergence",0%

# — patent publication US20100267561A1, “HERBICIDAL PYRIDAZINONE DERIVATIVES” (priority 2007, published 2010)
